According to ChEMBL document CHEMBL1201862, “PubChem BioAssay data set” (2004):
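Dose response: 5 concentrations. Exposure: 48 h. Format: 96-well plates. Endpoint: linear interpolation; highest concentration if not reached. Abbreviation: GI50, concentration required for 50% inhibition of growth.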 Calls of active or inactive are those of the source. Rule as the data show it: active = GI50 up to about 1.1 µM and inactive = higher.

Tests used:
Experiment in all cases: NCI-60 cell line screen, 48 h
CAKI-1 = system: CAKI-1
SK-MEL-5 = system: SK-MEL-5
SN12C = system: SN12C
K562 = system: K562
HOP-62 = system: HOP-62
CCRF-CEM = system: CCRF-CEM
HCT-116 = system: HCT-116
LOX IMVI = system: LOX IMVI
UACC-62 = system: UACC-62
HCT-15 = system: HCT-15
NCI/ADR-RES = system: NCI/ADR-RES
HL-60 = system: HL-60
NCI-H226 = system: NCI-H226
MDA-N = system: MDA-N
SF-268 = system: SF-268
OVCAR-4 = system: OVCAR-4
M14 = system: M14
TK-10 = system: TK-10
SW-620 = system: SW-620
BT-549 = system: BT-549

Structure (SMILES)	GI50 (CAKI-1)	GI50 (SK-MEL-5)	GI50 (SN12C)	GI50 (K562)	GI50 (HOP-62)	GI50 (CCRF-CEM)	GI50 (HCT-116)	GI50 (LOX IMVI)	GI50 (UACC-62)	GI50 (HCT-15) [µM]	GI50 (NCI/ADR-RES)	GI50 (HL-60)	GI50 (NCI-H226)	GI50 (MDA-N)	GI50 (SF-268)	GI50 (OVCAR-4)	GI50 (M14)	GI50 (TK-10)	GI50 (SW-620)	GI50 (BT-549)
C/C(=N/NC(=S)N(C)CCc1ccccn1)c1cnccn1	< 0.01 µM (active)	0.0256 µM (active)	< 0.01 µM (active)	< 0.01 µM (active)	< 0.0246 µM (active)	< 0.0358 µM (active)	< 0.01 µM (active)	< 0.01 µM (active)	0.0986 µM (active)	< 0.01	< 0.01 µM (active)	< 0.01 µM (active)	< 0.01 µM (active)	0.828 µM (active)	< 0.01 µM (active)	< 0.01 µM (active)	< 0.01 µM (active)	< 0.01 µM (active)	< 0.01 µM (active)	0.398 µM (active)
C=C1CC(C)(COc2cc(=O)oc3ccccc23)OC1=O (stereo not given)	2.22 µM (inactive)	5.33 µM (inactive)	8.3 µM (inactive)	2 µM (inactive)	20.2 µM (inactive)	1.86 µM (inactive)	2.71 µM (inactive)	2.56 µM (inactive)	2.48 µM (inactive)	3.43	3.35 µM (inactive)	1.17 µM (inactive)	10.3 µM (inactive)	4.13 µM (inactive)	14.9 µM (inactive)	3.87 µM (inactive)	1.42 µM (inactive)	1.77 µM (inactive)	2.57 µM (inactive)	1.73 µM (inactive)
CN(C)S(=O)(=O)/N=C/c1cccc(/C=N/S(=O)(=O)N(C)C)c1	> 100 µM (inactive)	55.1 µM (inactive)	> 100 µM (inactive)	52.4 µM (inactive)	> 100 µM (inactive)	74.8 µM (inactive)	33.3 µM (inactive)	> 100 µM (inactive)	> 100 µM (inactive)	> 100	81.7 µM (inactive)	> 100 µM (inactive)	> 100 µM (inactive)	31 µM (inactive)	61.5 µM (inactive)	> 100 µM (inactive)	> 100 µM (inactive)	> 100 µM (inactive)	64 µM (inactive)	38.1 µM (inactive)
COC(CC1(CCNc2ccccc2)C(=O)N(COCC[Si](C)(C)C)c2ccccc21)OC (stereo not given)	26.4 µM (inactive)	4.97 µM (inactive)	23.2 µM (inactive)	8.41 µM (inactive)	13.7 µM (inactive)	15.8 µM (inactive)	13.9 µM (inactive)	12.5 µM (inactive)	14.5 µM (inactive)	16	17.1 µM (inactive)	4.35 µM (inactive)	6 µM (inactive)	24 µM (inactive)	11.6 µM (inactive)	13.6 µM (inactive)	2.51 µM (inactive)	14.8 µM (inactive)	18.9 µM (inactive)	17.2 µM (inactive)
COc1c(OC)c(OC)c2c(=O)cc(-c3ccc(OC(C)C)cc3)oc2c1OC	20.5 µM (inactive)	8.97 µM (inactive)	> 38.9 µM (inactive)	5.25 µM (inactive)	18.5 µM (inactive)	6.37 µM (inactive)	10.8 µM (inactive)	27.5 µM (inactive)	15.8 µM (inactive)	19.4	17.5 µM (inactive)	2.07 µM (inactive)	15.1 µM (inactive)	31.8 µM (inactive)	> 35.9 µM (inactive)	16.5 µM (inactive)	19.1 µM (inactive)	> 38.6 µM (inactive)	> 44 µM (inactive)	16.7 µM (inactive)
N#Cc1c(N2CCCC2)nsc1NCc1ccccc1	> 100 µM (inactive)	> 100 µM (inactive)	> 100 µM (inactive)	> 100 µM (inactive)	> 100 µM (inactive)	> 100 µM (inactive)	> 100 µM (inactive)	> 100 µM (inactive)	75.2 µM (inactive)	> 100	> 100 µM (inactive)	> 100 µM (inactive)	> 100 µM (inactive)	> 100 µM (inactive)	> 100 µM (inactive)	> 100 µM (inactive)	> 100 µM (inactive)	> 100 µM (inactive)	> 100 µM (inactive)	> 100 µM (inactive)
O=C(NNC(=O)c1ccccc1O)c1cccs1	79.4 µM (inactive)	> 100 µM (inactive)	> 100 µM (inactive)	> 100 µM (inactive)	42.6 µM (inactive)	> 100 µM (inactive)	42.1 µM (inactive)	66.4 µM (inactive)	49.8 µM (inactive)	47.8	27.8 µM (inactive)	50 µM (inactive)	5.79 µM (inactive)	> 100 µM (inactive)	19 µM (inactive)	> 100 µM (inactive)	35.5 µM (inactive)	> 100 µM (inactive)	61.5 µM (inactive)	> 100 µM (inactive)
Cc1nnc2n1N=C(c1cc(F)c(Cl)cc1Cl)/C(=C/c1ccc3c(c1)OCO3)S2	69.7 µM (inactive)	> 100 µM (inactive)	53.7 µM (inactive)	> 100 µM (inactive)	37.1 µM (inactive)	43 µM (inactive)	47.8 µM (inactive)	33.1 µM (inactive)	62.8 µM (inactive)	52.5	69.2 µM (inactive)	40.4 µM (inactive)	> 100 µM (inactive)	39.3 µM (inactive)	88.9 µM (inactive)	51.6 µM (inactive)	> 100 µM (inactive)	> 100 µM (inactive)	> 100 µM (inactive)	> 100 µM (inactive)
CCOP(=O)(O)C(Nc1ccc(/N=N/c2ccccc2)cc1)c1cccc(C(Nc2ccc(/N=N/c3ccccc3)cc2)P(=O)(O)OCC)c1 (stereo not given)	66.1 µM (inactive)	45.1 µM (inactive)	52 µM (inactive)	19 µM (inactive)	25.3 µM (inactive)	15.5 µM (inactive)	56.6 µM (inactive)	19.9 µM (inactive)	29.4 µM (inactive)	24.8	76.9 µM (inactive)	22.1 µM (inactive)	> 100 µM (inactive)	60.5 µM (inactive)	69.8 µM (inactive)	47.2 µM (inactive)	40.6 µM (inactive)	> 100 µM (inactive)	35.2 µM (inactive)	45.2 µM (inactive)
COc1ccc(C2SC(=N)Nc3c2c(C)nn3C(=O)c2ccc(Cl)cc2)cc1OC (stereo not given)	> 10 µM (inactive)	> 10 µM (inactive)	> 10 µM (inactive)	> 10 µM (inactive)	> 10 µM (inactive)	> 10 µM (inactive)	> 10 µM (inactive)	> 10 µM (inactive)	> 10 µM (inactive)	> 10	> 10 µM (inactive)	> 10 µM (inactive)	> 10 µM (inactive)	> 10 µM (inactive)	> 10 µM (inactive)	> 10 µM (inactive)	> 10 µM (inactive)	> 10 µM (inactive)	> 10 µM (inactive)	> 10 µM (inactive)
